Earlier results as cited in US20090223408A1, “Use of Sub-Micron Copper Salt Particles in Wood Preservation” (PhibroWood, LLC, priority 2004, published 2009).
Read-outs that look alike come from different tables or passages of the source.

Assays:
[1] = baseline about 4 mg copper per liter

Row | Molecule | Solubility of copper (pH 4) [ppm] | Solubility of copper (pH 7) [ppm] | Solubility of copper (pH 10) | leachate copper concentration relative to CCA baseline [1]
1 | [OH][Cu][OH] [copper hydroxide, copper(II) hydroxide] | 640 | 2 | about 0.01 ppm | –
2 | copper citrate | – | – | – | over fifteen times the baseline concentration
